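Cells were grown in 96-well plates and exposed to each compound for 48 hours at five concentrations; endpoints were interpolated linearly between bracketing concentrations, or set to the highest concentration if not reached. TGI: concentration producing complete growth inhibition.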
What was measured:
Assay in all cases: NCI anticancer screen, dose series, 48 h
HOP-92 NSCLC = tested on: HOP-92 NSCLC
UACC-62 melanoma = tested on: UACC-62 melanoma
SF-539 CNS = tested on: SF-539 CNS
HCC-2998 colon = tested on: HCC-2998 colon
RPMI-8226 leukemia = tested on: RPMI-8226 leukemia
NCI-H522 lung = tested on: NCI-H522 lung
ACHN renal = tested on: ACHN renal
U251 CNS = tested on: U251 CNS
HCT-15 colon = tested on: HCT-15 colon
HOP-18 NSCLC = tested on: HOP-18 NSCLC
SN12C renal = tested on: SN12C renal
SNB-19 CNS = tested on: SNB-19 CNS
SF-268 CNS = tested on: SF-268 CNS
SK-OV-3 ovarian = tested on: SK-OV-3 ovarian
UO-31 renal = tested on: UO-31 renal
SNB-75 CNS = tested on: SNB-75 CNS
DMS 273 small cell lung = tested on: DMS 273 small cell lung
HCT-116 colon = tested on: HCT-116 colon
SR leukemia = tested on: SR leukemia
NCI-H23 lung = tested on: NCI-H23 lung
HL-60(TB) leukemia = tested on: HL-60(TB) leukemia
DLD-1 colon = tested on: DLD-1 colon
NCI-H226 lung = tested on: NCI-H226 lung
K-562 leukemia = tested on: K-562 leukemia
OVCAR-5 ovarian = tested on: OVCAR-5 ovarian
SNB-78 CNS = tested on: SNB-78 CNS
A549 NSCLC = tested on: A549 NSCLC
OVCAR-8 ovarian = tested on: OVCAR-8 ovarian
SK-MEL-5 melanoma = tested on: SK-MEL-5 melanoma
LOX IMVI melanoma = tested on: LOX IMVI melanoma
M19-MEL melanoma = tested on: M19-MEL melanoma
OVCAR-4 ovarian = tested on: OVCAR-4 ovarian
DMS 114 small cell lung = tested on: DMS 114 small cell lung
786-0 renal = tested on: 786-0 renal
IGROV1 ovarian = tested on: IGROV1 ovarian
HT29 colon = tested on: HT29 colon
UACC-257 melanoma = tested on: UACC-257 melanoma
KM20L2 colon = tested on: KM20L2 colon
COLO 205 colon = tested on: COLO 205 colon
SW-620 colon = tested on: SW-620 colon
CCRF-CEM leukemia = tested on: CCRF-CEM leukemia
MOLT-4 leukemia = tested on: MOLT-4 leukemia
OVCAR-3 ovarian = tested on: OVCAR-3 ovarian
NCI-H460 lung = tested on: NCI-H460 lung
KM12 colon = tested on: KM12 colon
SK-MEL-2 melanoma = tested on: SK-MEL-2 melanoma
LXFL 529 NSCLC = tested on: LXFL 529 NSCLC
MALME-3M melanoma = tested on: MALME-3M melanoma
TK-10 renal = tested on: TK-10 renal
EKVX NSCLC = tested on: EKVX NSCLC
A498 renal = tested on: A498 renal
M14 melanoma = tested on: M14 melanoma
RXF 393 renal = tested on: RXF 393 renal
CAKI-1 renal = tested on: CAKI-1 renal
SF-295 CNS = tested on: SF-295 CNS
HOP-62 NSCLC = tested on: HOP-62 NSCLC
SK-MEL-28 melanoma = tested on: SK-MEL-28 melanoma

## C[C@@H](O)CCC(=O)c1ccoc1
HOP-92 NSCLC
  TGI: > 100 µM
UACC-62 melanoma
  TGI: > 100 µM
SF-539 CNS
  TGI: > 100 µM
HCC-2998 colon
  TGI: > 100 µM
RPMI-8226 leukemia
  TGI: > 100 µM
NCI-H522 lung
  TGI: > 100 µM
ACHN renal
  TGI: > 100 µM
U251 CNS
  TGI: > 100 µM
HCT-15 colon
  TGI: > 100 µM
HOP-18 NSCLC
  TGI: > 100 µM
SN12C renal
  TGI: > 100 µM
SNB-19 CNS
  TGI: > 100 µM
SF-268 CNS
  TGI: > 100 µM
SK-OV-3 ovarian
  TGI: > 100 µM
UO-31 renal
  TGI: > 100 µM
SNB-75 CNS
  TGI: > 100 µM
DMS 273 small cell lung
  TGI: > 100 µM
HCT-116 colon
  TGI: > 100 µM
SR leukemia
  TGI: > 100 µM
NCI-H23 lung
  TGI: > 100 µM
HL-60(TB) leukemia
  TGI: > 100 µM
DLD-1 colon
  TGI: > 100 µM
NCI-H226 lung
  TGI: > 100 µM
K-562 leukemia
  TGI: > 100 µM
OVCAR-5 ovarian
  TGI: > 100 µM
SNB-78 CNS
  TGI: > 100 µM
A549 NSCLC
  TGI: > 100 µM
OVCAR-8 ovarian
  TGI: > 100 µM
SK-MEL-5 melanoma
  TGI: > 100 µM
LOX IMVI melanoma
  TGI: > 100 µM
M19-MEL melanoma
  TGI: > 100 µM
OVCAR-4 ovarian
  TGI: > 100 µM
DMS 114 small cell lung
  TGI: > 100 µM
786-0 renal
  TGI: > 100 µM
IGROV1 ovarian
  TGI: > 100 µM
HT29 colon
  TGI: > 100 µM
UACC-257 melanoma
  TGI: > 100 µM
KM20L2 colon
  TGI: > 100 µM
COLO 205 colon
  TGI: > 100 µM
SW-620 colon
  TGI: > 100 µM
CCRF-CEM leukemia
  TGI: > 100 µM
MOLT-4 leukemia
  TGI: > 100 µM
OVCAR-3 ovarian
  TGI: > 100 µM
NCI-H460 lung
  TGI: > 100 µM
KM12 colon
  TGI: > 100 µM
SK-MEL-2 melanoma
  TGI: > 100 µM
LXFL 529 NSCLC
  TGI: > 100 µM
MALME-3M melanoma
  TGI: > 100 µM
TK-10 renal
  TGI: > 100 µM
EKVX NSCLC
  TGI: > 100 µM
A498 renal
  TGI: > 100 µM
M14 melanoma
  TGI: > 100 µM
RXF 393 renal
  TGI: > 100 µM
CAKI-1 renal
  TGI: > 100 µM
SF-295 CNS
  TGI: > 100 µM
HOP-62 NSCLC
  TGI: > 100 µM
SK-MEL-28 melanoma
  TGI: > 100 µM

## COC1/C(=C\c2ccccc2I)c2ccccc2N1C(C)=O (configuration not stated)
HOP-92 NSCLC
  TGI: 8.99 µM
UACC-62 melanoma
  TGI: 26.7 µM
SF-539 CNS
  TGI: 31.2 µM
HCC-2998 colon
  TGI: 33.9 µM
RPMI-8226 leukemia
  TGI: 39.1 µM
ACHN renal
  TGI: > 100 µM
U251 CNS
  TGI: 42.6 µM
HCT-15 colon
  TGI: 37.4 µM
HOP-18 NSCLC
  TGI: 38.1 µM
SN12C renal
  TGI: 28.8 µM
SNB-19 CNS
  TGI: 60.4 µM
UO-31 renal
  TGI: 9.91 µM
SNB-75 CNS
  TGI: 55 µM
DMS 273 small cell lung
  TGI: 27.1 µM
HCT-116 colon
  TGI: 26.8 µM
SR leukemia
  TGI: 42.9 µM
NCI-H23 lung
  TGI: 36.5 µM
HL-60(TB) leukemia
  TGI: 16.1 µM
DLD-1 colon
  TGI: 43.4 µM
K-562 leukemia
  TGI: 53.3 µM
SNB-78 CNS
  TGI: 82.5 µM
A549 NSCLC
  TGI: 35.8 µM
OVCAR-8 ovarian
  TGI: > 100 µM
M19-MEL melanoma
  TGI: 42.4 µM
OVCAR-4 ovarian
  TGI: 32.1 µM
DMS 114 small cell lung
  TGI: 38.7 µM
786-0 renal
  TGI: 33.3 µM
IGROV1 ovarian
  TGI: 39.6 µM
HT29 colon
  TGI: 37.1 µM
UACC-257 melanoma
  TGI: 44.1 µM
KM20L2 colon
  TGI: 30 µM
COLO 205 colon
  TGI: 31.5 µM
SW-620 colon
  TGI: 39.2 µM
CCRF-CEM leukemia
  TGI: 59.1 µM
MOLT-4 leukemia
  TGI: 35.8 µM
OVCAR-3 ovarian
  TGI: 31.2 µM
NCI-H460 lung
  TGI: 33.5 µM
KM12 colon
  TGI: 29 µM
SK-MEL-2 melanoma
  TGI: 32.5 µM
LXFL 529 NSCLC
  TGI: 87.4 µM
EKVX NSCLC
  TGI: 39.6 µM
A498 renal
  TGI: 30.1 µM
RXF 393 renal
  TGI: 22.3 µM
CAKI-1 renal
  TGI: 50 µM
SF-295 CNS
  TGI: 29.2 µM
HOP-62 NSCLC
  TGI: 32.7 µM
SK-MEL-28 melanoma
  TGI: 38.3 µM

## CN(C)CC/C(=N\Nc1ccc(Cl)cc1)c1ccccc1
UACC-62 melanoma
  TGI: 2.07 µM
SF-539 CNS
  TGI: 3.65 µM
RPMI-8226 leukemia
  TGI: 3.13 µM
NCI-H522 lung
  TGI: 3.78 µM
ACHN renal
  TGI: 2.59 µM
U251 CNS
  TGI: 1.74 µM
HCT-15 colon
  TGI: 1.23 µM
HOP-18 NSCLC
  TGI: 7.78 µM
SN12C renal
  TGI: 4.13 µM
SNB-19 CNS
  TGI: 6.91 µM
SF-268 CNS
  TGI: 3.67 µM
SK-OV-3 ovarian
  TGI: 7.04 µM
UO-31 renal
  TGI: 0.986 µM
SNB-75 CNS
  TGI: 6.45 µM
DMS 273 small cell lung
  TGI: 1.61 µM
HCT-116 colon
  TGI: 2.6 µM
SR leukemia
  TGI: 4.4 µM
NCI-H23 lung
  TGI: 3.93 µM
HL-60(TB) leukemia
  TGI: 2.17 µM
DLD-1 colon
  TGI: 3.74 µM
K-562 leukemia
  TGI: 1.03 µM
OVCAR-5 ovarian
  TGI: 2.66 µM
SNB-78 CNS
  TGI: 5.13 µM
A549 NSCLC
  TGI: 3.29 µM
OVCAR-8 ovarian
  TGI: 11.5 µM
SK-MEL-5 melanoma
  TGI: 3.27 µM
LOX IMVI melanoma
  TGI: 0.691 µM
M19-MEL melanoma
  TGI: 3.2 µM
OVCAR-4 ovarian
  TGI: 7.05 µM
DMS 114 small cell lung
  TGI: 4.45 µM
786-0 renal
  TGI: 3.88 µM
IGROV1 ovarian
  TGI: 4.67 µM
HT29 colon
  TGI: 3 µM
UACC-257 melanoma
  TGI: 3.35 µM
KM20L2 colon
  TGI: 0.349 µM
COLO 205 colon
  TGI: 3.27 µM
SW-620 colon
  TGI: 2.37 µM
CCRF-CEM leukemia
  TGI: 11.2 µM
MOLT-4 leukemia
  TGI: 10.2 µM
OVCAR-3 ovarian
  TGI: 3.15 µM
NCI-H460 lung
  TGI: 2.45 µM
KM12 colon
  TGI: 2.93 µM
SK-MEL-2 melanoma
  TGI: 4.58 µM
LXFL 529 NSCLC
  TGI: 0.373 µM
MALME-3M melanoma
  TGI: 3.95 µM
TK-10 renal
  TGI: 2.32 µM
EKVX NSCLC
  TGI: 4.35 µM
A498 renal
  TGI: 10.8 µM
M14 melanoma
  TGI: 3.17 µM
RXF 393 renal
  TGI: 10.3 µM
SF-295 CNS
  TGI: 1.25 µM
HOP-62 NSCLC
  TGI: 3.62 µM
SK-MEL-28 melanoma
  TGI: 2.92 µM

From PubChem BioAssay (NCI)
